Test results from US5023273A, “6-oxoprostaglandin E derivatives, process for their production and their pharmaceutical use” (Schering Aktiengesellschaft, priority 1987, dated 1991).

How the values were obtained:
Thrombocyte [1] = test: Thrombocyte aggregation inhibition; format: cell-based
Experimental: (§1) The pharmacological comparison tests, which were conducted with the compounds from examples 1 and 4 in comparison with 6-oxo-PGE1, are summarized in the following table.

[2] = system: Stomach (rats, trauma with ethanol); test: Cytoprotection, stomach (rats, trauma with ethanol); format: in vivo; conditions: 10 micrograms/kg
Experimental: as §1

Thrombocyte [3] = test: Thrombocyte shape change; format: cell-based
Experimental: as §1

IC50 (Thrombocyte [1]) [nM]	IC50 (Thrombocyte [3]) [nM]	SMILES	Cytoprotection, stomach: inhibition [2] [%]
7		CCCCC[C@H](O)/C=C/[C@H]1[C@H](O)CC(=O)[C@@H]1CC(=O)CCCCC(=O)O [Example 6oxoPGE1, reference compound]	52
0.09	1	CCC#CC[C@H](C)[C@H](O)C#C[C@H]1[C@H](O)CC(=O)[C@@H]1CC(=O)CCCCC(=O)O [Example 4, (11R,15S,16S)-6,9-di-oxo-11,15-dihydroxy-16,20-dimethyl-13,14,18,18,19,19-hexadehydroxy-13-prostenoic acid]	
1.7	10	CC#CCC(C)[C@H](O)/C=C/[C@H]1[C@H](O)CC(=O)[C@@H]1CC(=O)CCCCC(=O)O (mixture of isomers) [Example 1, (13E)-(11R,15S,16RS)-6,9-Di-oxo-11,15-dihydroxy-16-methyl-18,18,19,19-tetradehydro-13-prostenoic acid]	
